The values that follow come from US20240239743A1, “1-(4-{1-[(E)-4-CYCLOHEXYL-3-TRIFLUOROMETHYLBENZYLOXYIMINO]-ETHYL}-2-ETHYL-BENZYL)-AZETIDINE-3-CARBOXYLIC ACID, (E)-BUT-2-ENEDIOIC ACID” (Novartis AG, priority 2008, published 2024).

The conditions of series [1]: pressure of 10 tons for 5 minutes; Raman microscope. How it is done:
Crystalline form A was also tested for pressure stability by exposing a few milligrams of this form to a pressure of 10 tons for 5 minutes.

A short description of series [2]: Dynamic Vapour Sorption (hygroscopicity). Particulars: 50-0-95-50% r.h. Type of series: physicochemical. The text has this:
Dynamic Vapour Sorption measurements were taken using a DVS-1 water vapour sorption analyzer (Surface Measurement Systems Ltd.) or a Projekt Messtechnik SPS11-100n. The sample was allowed to equilibrate at 50% r.h. before starting a pre-defined humidity program (50-0-95-50% r.h., scanning with 5% Δr.h. hour-1 and with several isohumid equilibration periods).

The nature of series [3]: Stability of hemifumarate salt solution relative to free base solution at elevated temperature. As to conditions: solution/suspension in ethanol; 40° C., 50° C. and 60° C. for one week; compared with free base. Type of series: physicochemical. The protocol:
30 g of compound I was prepared using the method of Example 3 of WO2004/103306. The hemifumarate salt of the invention was then prepared by reacting a suspension of 30.0 g of compound I and […] fumaric acid (5% conc.) in 200 g ethanol absolute (>99.9%) at room temperature (25° C.).
The stability of the hemifumarate salt solution relative to the free base solution was then tested by subjecting both solutions to conditions of elevated temperature (40° C., 50° C. and 60° C.) for a period of one week.

Consider `CCc1cc(/C(C)=N/OCc2ccc(C3CCCCC3)c(C(F)(F)F)c2)ccc1CN1CC(C(=O)O)C1.CCc1cc(/C(C)=N/OCc2ccc(C3CCCCC3)c(C(F)(F)F)c2)ccc1CN1CC(C(=O)O)C1.O=C(O)/C=C/C(=O)O` [Crystalline Form A], for which, in series [1], the “pressure stability (change in crystal form)” value was “no change in form was observed”. In addition, the hygroscopicity entry in series [2] is recorded as “low hygroscopicity”.

Regarding `CCc1cc(/C(C)=N/OCc2ccc(C3CCCCC3)c(C(F)(F)F)c2)ccc1CN1CC(C(=O)O)C1.O=C(O)/C=C/C(=O)O` [hemifumarate salt, 1-(4-{1-[(E)-4-Cyclohexyl-3-trifluoromethyl-benzyloxyimino]-ethyl}-2-ethyl-benzyl)-azetidine-3-carboxylic acid, (E)-but-2-enedioic acid], the “stability of the hemifumarate salt solution relative to the free base solution” value in series [3] is listed as “superior stability”.
